One assay relates to Bbs1M390R/M390R mice. Particulars: cited from earlier work.
The test system of assay [1] is Bbs12 depleted retinal explants (photoreceptor apoptosis, ONL). The assay is described as follows: TUNEL assay, apoptotic rate of photoreceptors in shRNA-treated retinal explants. Type of assay: cell-based, mouse. The following applies: shBbs12 explants; single treatments 2 mM VPA, 25 μM GBZ, 10 μM INH; 33% without treatment. As to the method: (§1) Wild-type animals were on a C57BL/6 background. The retinal explant culture procedure was carried out as previously described (Reidel et al., 2006). Briefly, 15-day-old mice were sacrificed by decapitation and eyes were removed and incubated in trypsin (catalog #25200-072, Gibco, Invitrogen, Paris, France) for 10 min at 37° C. Digestion was stopped by transferring eyes in DMEM+10% fetal bovine serum (catalog #31885-023 and 10500-064, Gibco) and incubation for 10 min at 4° C. Eyes were dissected in Ame's medium (catalog#15230-097, Gibco) supplemented with 6.5 g/L glucose. First, the sclera was carefully removed, leaving the retinal pigmented epithelium (RPE) attached to the eyeball. Incisions were made at the edge of the cornea to remove the cornea, lens and hyaloid body. Then four radial incisions were made in the retina to obtain a cross shape. Retinas were transferred on a nitrocellulose culture membrane (catalog # PICMORG50, Millipore, Molsheim, France) with RPE side down and cultivated in Neurobasal A medium (catalog #108888-022, Gibco) supplemented with B27 supplement (catalog #17504-044, Gibco), L-glutamine (catalog #35050-061, Gibco) and penicillin/streptomycin (catalog #15240; Gibco). Explants were maintained at 37° C. humidified 5% CO2. Specific gene silencing using lentiviruses carrying shRNA sequences for Bbs12, Perk, Hri or Rhodopsin (Santa Cruz Biotechnology, Tebu Bio, Yvelines, France) were performed by adding 20 μl of viral suspension (1×10^5 infectious units) in the culture medium overnight before whole medium change. The infected explants were then cultured for 3 days with a half medium change on a daily basis. Explants were not maintained longer in culture to avoid unspecific apoptosis in the different retinal layers. […] Drugs were added simultaneously with viral infection to the culture medium.
For immunofluorescence experiments and TUNEL assay retinal explants were fixed directly on membranes with Formalin 10% for 1 hour at 4° C. Sucrose impregnation was then performed using 10%, 20% and 30% sucrose baths, 20 min each. Explants were transferred to OCT (catalog #4583, Tissue-Tek, Sakura, Villeneuve d′Ascq, France) in mold and frozen in liquid nitrogen. 8 μm thin cryosections were mounted on StarFrost slides (catalog # VS1117, Waldemar Knittel Glasbearbeitungs, Braunschweig, Germany).
Sections or cells were washed with PBS 1× and shortly fixated with Formalin 10% solution for 5 minutes and washed three times with PBS 1×. […] The prevalence of apoptotic nuclei was expressed as the ratio of TUNEL-positive nuclei and DAPI-stained nuclei in three different areas of the ONL per experiment. […]

Another assay has as its system peIF2α, CHOP10 and BiP. The experiment in a line: Western blot of UPR proteins in retinal explants. Type of assay: cell-based, mouse. The following applies: shRNA-treated retinal explants. Here is the method:
as §1
Proteins were obtained by lysis in RIPA buffer (150 mM NaCl, 50 mM TrisHCl pH 8, 0.1% Tween20, catalog # P7653, T3253, 93773, Sigma-Aldrich) supplemented with Protease Inhibitors Complete Mini EDTA-free (catalog #11836 170001, Roche, Boullogne-Billancourt, France), 1 mM NaVO4 and 25 mM NaF (catalog # S6508 and S7920, Sigma-Aldrich). After retina dissociation using dounce homogenizer, samples were sonicated and protein concentration was determined using Bradford reagent (catalog #500-0006, BioRad). For Western blotting, 80 μg of whole protein extracts were loaded per lane and Ponceau S staining was used as loading control for signal quantification. Antibody binding was visualized using SuperSignal West Femto Maximum Sensitivity Substrate (catalog #34095, ThermoFisher) on a Versadoc apparitus, BioRad. Signal quantification was assed using QuantityOne software from BioRad.

*: point of attachment. Cbz = O=C(OCc1ccccc1)*; CH2F = FC*

Results on two compounds are retold here after patent US9636377B2, “Compositions and methods for the treatment of retinal degeneration” (UNIVERSITE DE STRASBOURG, priority 2012, dated 2017).

`C[C@H](CCC(=O)NCCS(=O)(=O)O)[C@H]1CC[C@H]2[C@@H]3[C@@H](O)C[C@@H]4C[C@H](O)CC[C@]4(C)[C@H]3CC[C@]12C` [TUDCA, tauroursodeoxycholic acid]: the retinal thickness entry in the assay on Bbs1M390R/M390R mice was “induced retinal thickening”.

On to “Z-Ala-Thr-Ala-Asp(O-methyl)-fluoromethyl-ketone (Cbz-ATAD(OMe)-CH2F; SMILES COC(=O)C[C@H](NC(=O)[C@H](C)NC(=O)[C@@H](NC(=O)[C@H](C)NC(=O)OCc1ccccc1)[C@@H](C)O)C(=O)CF) [INH, Promokine]”, for which, in assay [1], the “apoptotic rate (proportion of apoptotic photoreceptor nucleus)” value is given as 23%. For the same compound, in the assay on peIF2α, CHOP10 and BiP, the CHOP10 protein content entry is “decrease” and the “eIF2α phosphorylation (peIF2α), protein level” value is on record as “decrease”.
